Measurements published in PubChem BioAssay AID328 (DTP/NCI, 2004).
Several values for one entry are separate records, joined by “and”; a condition that tells them apart may be missing. Equal values may be shown once. Inconclusive results and toxic doses are left out.

Tested on: BDF1 mice, P388 leukemia ip, median survival T/C
Assay: NCI In Vivo Anticancer Drug Screen. Data for tumor model P388 Leukemia (intraperitoneal) in B6D2F1 (BDF1) mice
Details: endpoint: median survival time, higher = longer survival
Procedure, shortened: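 Read-out is survival of treated animals expressed relative to the vehicle group, as a T/C ratio.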

[1] = dose: 12.5 mg/kg/injection, schedule: Q04DX003 (ip), vehicle: saline with Tween-80
[2] = dose: 25.0 mg/kg/injection, schedule: Q01DX009 (ip), vehicle: saline with Tween-80
[3] = dose: 50.0 mg/kg/injection, schedule: Q01DX009 (ip), vehicle: saline with Tween-80
[4] = dose: 100.0 mg/kg/injection, schedule: Q01DX009 (ip), vehicle: saline with Tween-80
[5] = dose: 100.0 mg/kg/injection, schedule: Q04DX003 (ip), vehicle: saline with Tween-80
[6] = dose: 200.0 mg/kg/injection, schedule: Q01DX009 (ip), vehicle: saline with Tween-80
[7] = dose: 200.0 mg/kg/injection, schedule: Q04DX003 (ip), vehicle: saline with Tween-80
[8] = dose: 400.0 mg/kg/injection, schedule: Q01DX009 (ip), vehicle: saline with Tween-80
[9] = dose: 100.0 mg/kg/injection, schedule: Q04DX003 (ip), vehicle: saline
[10] = dose: 200.0 mg/kg/injection, schedule: Q04DX003 (ip), vehicle: saline
[11] = dose: 12.5 mg/kg/injection, schedule: Q01DX009 (ip), vehicle: saline
[12] = dose: 25.0 mg/kg/injection, schedule: Q01DX009 (ip), vehicle: saline
[13] = dose: 50.0 mg/kg/injection, schedule: Q01DX009 (ip), vehicle: saline
[14] = dose: 400.0 mg/kg/injection, schedule: Q04DX003 (ip), vehicle: saline with Tween-80
[15] = dose: 100.0 mg/kg/injection, schedule: Q01DX009 (ip), vehicle: saline
[16] = dose: 200.0 mg/kg/injection, schedule: Q01DX009 (ip), vehicle: saline
[17] = dose: 100.0 mg/kg/injection, schedule: Q04DX003 (ip), vehicle: Klucel (hydroxypropylcellulose) (HPC)
[18] = dose: 400.0 mg/kg/injection, schedule: Q04DX003 (ip), vehicle: Klucel (hydroxypropylcellulose) (HPC)

For `Clc1nc2nsnc2nc1Cl`, the T/C (dose: 6.25 mg/kg/injection, schedule: Q04DX003 (ip), vehicle: saline with Tween-80) was 101 % of control, the T/C (dose: 12.5 mg/kg/injection, schedule: Q01DX009 (ip), vehicle: saline with Tween-80) was 104 % of control and the T/C [1] was 94 % of control and 115 % of control. For the same molecule, the T/C [2] was 98 % of control, the T/C (dose: 25.0 mg/kg/injection, schedule: Q04DX003 (ip), vehicle: saline with Tween-80) was 101 % of control and 107 % of control and the T/C [3] was 107 % of control. The T/C (dose: 50.0 mg/kg/injection, schedule: Q04DX003 (ip), vehicle: saline with Tween-80) was 97 % of control and 107 % of control, the T/C [4] was 122 % of control and the T/C [5] was 105 % of control. For the same molecule, the T/C [6] was 118 % of control, the T/C [7] was 110 % of control and 112 % of control and the T/C (dose: 300.0 mg/kg/injection, schedule: Q04DX003 (ip), vehicle: saline with Tween-80) was 115 % of control. The T/C [8] was 105 % of control.

`Cn1ncc2c(N)c(C#N)c(=O)[nH]c21` was tested, and the T/C (dose: 100.0 mg/kg/injection, schedule: Q01DX001 (ip), vehicle: saline with Tween-80) was 114 % of control.

`O=C1CNC(=O)c2cc(N=Cc3cc(Br)ccc3O)ccc2N1` was tested, and the T/C [3] was 99 % of control, the T/C [4] was 89 % of control and the T/C [6] was 100 % of control.

In the case of `Cc1ccc(S(=O)(=O)c2ccc(Sc3cccc[n+]3[O-])c3nonc23)cc1`, the T/C [2] is reported as 119 % of control and the T/C [4] is reported as 111 % of control.

For `Cc1[nH]ccc2c(C)c3nc4ccccc4c3cc12`, the T/C (dose: 0.39 mg/kg/injection, schedule: Q01DX009 (ip), vehicle: saline with Tween-80) was 116 % of control, the T/C (dose: 0.59 mg/kg/injection, schedule: Q01DX009 (ip), vehicle: saline with Tween-80) was 100 % of control and the T/C (dose: 0.9 mg/kg/injection, schedule: Q01DX009 (ip), vehicle: saline with Tween-80) was 150 % of control. For the same molecule, the T/C (dose: 1.35 mg/kg/injection, schedule: Q01DX009 (ip), vehicle: saline with Tween-80) was 160 % of control, the T/C (dose: 4.12 mg/kg/injection, schedule: Q01DX009 (ip), vehicle: saline with Tween-80) was 168 % of control and the T/C (dose: 8.25 mg/kg/injection, schedule: Q01DX009 (ip), vehicle: saline with Tween-80) was 177 % of control. For the same molecule, the T/C (dose: 16.5 mg/kg/injection, schedule: Q01DX009 (ip), vehicle: saline with Tween-80) was 163 % of control, the T/C [2] was 165 % of control and 168 % of control and the T/C (dose: 37.5 mg/kg/injection, schedule: Q01DX009 (ip), vehicle: saline with Tween-80) was 225 % of control and 154 % of control.

`COc1cc(C=Nc2ccc3c(c2)Cc2ccccc2-3)ccc1O` was tested, and the T/C (dose: 50.0 mg/kg/injection, schedule: Q04DX003 (ip), vehicle: saline sonified) was 104 % of control and the T/C (dose: 200.0 mg/kg/injection, schedule: Q04DX003 (ip), vehicle: saline sonified) was 95 % of control.

With `CN(C)NP(=O)(NN(C)C)N(C)C` the T/C (dose: 50.0 mg/kg/injection, schedule: Q04DX003 (ip), vehicle: saline) was 100 % of control, the T/C [9] was 113 % of control and the T/C [10] was 95 % of control.

`C/C(Cc1ccccc1)=N\O` was tested, and the T/C [4] was 100 % of control and the T/C [6] was 110 % of control.

`CC(=O)Nc1ccc(N2CCN=N2)cc1` was tested, and the T/C [11] was 110 % of control, the T/C [12] was 95 % of control and the T/C [13] was 105 % of control. The T/C (dose: 75.0 mg/kg/injection, schedule: Q01DX009 (ip), vehicle: Klucel (hydroxypropylcellulose) (HPC)) was 104 % of control.

`C=CCCCCn1c2ccccc2c2c(C)c3cnccc3c(C)c21` was tested, and the T/C [5] was 109 % of control, the T/C [7] was 100 % of control and the T/C [14] was 118 % of control.

`Nc1cc(I)c2cccnc2c1O` was tested, and the T/C (dose: 6.25 mg/kg/injection, schedule: Q01DX009 (ip), vehicle: saline) was 93 % of control and 115 % of control, the T/C [11] was 90 % of control and 99 % of control and the T/C [12] was 123 % of control. The T/C [13] was 117 % of control and the T/C [15] was 124 % of control.

In the case of `COc1cc2c(c(OC)c1OC)-c1ccc(SCc3ccccc3)c(=O)cc1[C@@H](NC(C)=O)CC2`, the T/C (dose: 8.2 mg/kg/injection, schedule: Q01DX009 (ip), vehicle: Klucel (hydroxypropylcellulose) (HPC)) is reported as 117 % of control and the T/C (dose: 12.5 mg/kg/injection, schedule: Q01DX009 (ip), vehicle: Klucel (hydroxypropylcellulose) (HPC)) is reported as 170 % of control.

In the case of `C1=CC2c3ccccc3C1c1ccccc12`, the T/C (dose: 100.0 mg/kg/injection, schedule: Q01DX007 (sc), vehicle: olive oil, sesame oil, peanut oil) is reported as 91 % of control, the T/C (dose: 100.0 mg/kg/injection, schedule: Q04DX003 (sc), vehicle: olive oil, sesame oil, peanut oil) is reported as 100 % of control and the T/C (dose: 200.0 mg/kg/injection, schedule: Q01DX007 (sc), vehicle: olive oil, sesame oil, peanut oil) is reported as 104 % of control. For the same molecule, the T/C (dose: 200.0 mg/kg/injection, schedule: Q04DX003 (sc), vehicle: olive oil, sesame oil, peanut oil) was 90 % of control, the T/C (dose: 400.0 mg/kg/injection, schedule: Q01DX007 (sc), vehicle: olive oil, sesame oil, peanut oil) was 95 % of control and the T/C (dose: 400.0 mg/kg/injection, schedule: Q04DX003 (sc), vehicle: olive oil, sesame oil, peanut oil) was 110 % of control.

In the case of `C/C(=C/c1c(C)[nH]c(=O)[nH]c1=O)C(=O)O`, the T/C [12] is reported as 89 % of control, the T/C [13] is reported as 89 % of control and the T/C [15] is reported as 96 % of control. For the same molecule, the T/C [9] was 101 % of control, the T/C [16] was 105 % of control and the T/C [10] was 91 % of control. For the same molecule, the T/C (dose: 400.0 mg/kg/injection, schedule: Q04DX003 (ip), vehicle: saline) was 87 % of control.

For `CCOC(=O)C(Cc1ccc(N(CCCl)CCCl)cc1)NC(=O)C(NC(C)=O)C(C)C` (configuration not stated), the T/C (dose: 5.0 mg/kg/injection, schedule: Q04DX003 (ip), vehicle: water) was 109 % of control, the T/C (dose: 10.0 mg/kg/injection, schedule: Q04DX003 (ip), vehicle: water) was 157 % of control and the T/C (dose: 20.0 mg/kg/injection, schedule: Q04DX003 (ip), vehicle: water) was 223 % of control. For the same molecule, the T/C (dose: 40.0 mg/kg/injection, schedule: Q04DX003 (ip), vehicle: water) was 264 % of control and the T/C (dose: 80.0 mg/kg/injection, schedule: Q04DX003 (ip), vehicle: water) was 150 % of control.

`CCOC(=O)c1cc(OC(C)=O)c2c(ccc3ccccc32)c1C` was tested, and the T/C [17] was 91 % of control and the T/C [18] was 91 % of control.

`CCSC(C#N)=C(c1ccccc1)c1ccccc1` was tested, and the T/C [5] was 103 % of control, the T/C [7] was 94 % of control and the T/C [14] was 92 % of control.

In the case of `NN1CCCC1`, the T/C [12] is reported as 100 % of control, the T/C [13] is reported as 100 % of control and the T/C [15] is reported as 86 % of control and 90 % of control and 100 % of control. For the same molecule, the T/C [9] was 104 % of control, the T/C [16] was 100 % of control and the T/C [10] was 113 % of control.

With `Cc1ccc(Nc2nc(N)nc(N)c2N)cc1Cl` the T/C (dose: 33.0 mg/kg/injection, schedule: Q01DX009 (ip), vehicle: saline with Tween-80) was 120 % of control.

In the case of `CCC1CCCCN1C(=S)N/N=C(\C)c1ccccn1` (configuration not stated), the T/C (dose: 3.12 mg/kg/injection, schedule: Q04DX003 (ip), vehicle: saline with Tween-80) is reported as 102 % of control and the T/C [1] is reported as 114 % of control.

In the case of `COC(=O)CCC(C)C1CCC2C3CCC4CC(SC(=N)N)CCC4(C)C3CC(O)C12C` (configuration not stated), the T/C [3] is reported as 91 % of control, the T/C [4] is reported as 89 % of control and the T/C [6] is reported as 89 % of control.

With `Cn1c(=O)c(-c2ccccc2)[n+]([O-])c2ccccc21` the T/C [2] was 98 % of control, the T/C [3] was 107 % of control and the T/C [4] was 100 % of control. For the same molecule, the T/C [6] was 113 % of control.

For `O=C(O)CCCCCCCCCCCCO`, the T/C [17] was 109 % of control, the T/C (dose: 200.0 mg/kg/injection, schedule: Q04DX003 (ip), vehicle: Klucel (hydroxypropylcellulose) (HPC)) was 90 % of control and the T/C [18] was 90 % of control.

For `CC(C)Oc1ccc2c(c1)Sc1ccc(Cl)cc1N2`, the T/C [4] was 104 % of control, the T/C [6] was 104 % of control and the T/C [8] was 104 % of control.

For `CCS(=O)(=O)C(Br)CBr` (configuration not stated), the T/C (dose: 25.0 mg/kg/injection, schedule: Q01DX009 (ip), vehicle: Klucel (hydroxypropylcellulose) (HPC)) was 114 % of control, the T/C (dose: 50.0 mg/kg/injection, schedule: Q01DX009 (ip), vehicle: Klucel (hydroxypropylcellulose) (HPC)) was 114 % of control and the T/C (dose: 100.0 mg/kg/injection, schedule: Q01DX009 (ip), vehicle: Klucel (hydroxypropylcellulose) (HPC)) was 105 % of control and 107 % of control.
